Experimental findings from patent US9840525B2, “Crystal form of tenofovir prodrug, preparation method thereof, and method of use thereof” (Jiangsu Hansoh Pharmaceutical Group Co., Ltd., priority 2014, dated 2017) are described below.

Each structure is given as a SMILES string.

One data set in a line: Stability Study. The settings on record: for Appearance / Crystal Form / Product Purity: 30° C. ± 2° C./RH 65% ± 5%. Type of data set: physicochemical. From the text: The stability of the new crystal form prepared by the method of Example 1 of the present invention was studied.
The nature of data set [1]: Determination of Absolute Bioavailability. The settings on record: rat, in vivo; rats, intravenous administration and oral administration.
Another data set in a line: Flowability Study. It is filed as physicochemical. An excerpt:
The flowability of the new crystal form prepared in Examples 1, 2 and 3 of the present invention was studied.

As to `CC(C)OC(=O)C(C)(C)N[P@](=O)(CO[C@H](C)Cn1cnc2c(N)ncnc21)Oc1ccccc1.O=C(O)/C=C/C(=O)O` [crystal form A, 9-[(R)-2-[[(S)-[[[1-(isopropoxycarbonyl)-1-methyl]ethyl]amino]phenoxyphosphinyl]methoxyl]propyl]adenine fumarate], the Appearance entry in “Stability Study” (0 month), in “Stability Study” (3 months) and in “Stability Study” (6 months) was “off-white powder” in each case. Also, the “Crystal Form” value in “Stability Study” (0 month), in “Stability Study” (3 months) and in “Stability Study” (6 months) was “Crystal form A” throughout. For the same molecule, the “Product Purity” value was 98.97% in “Stability Study” (0 month), 98.95% in the data set “Stability Study” (3 months) and 98.92% in “Stability Study” (6 months). For the same molecule, the Stability entry in the data set “Stability Study” (room temperature) was “stable at room temperature”. For the same molecule, the “Chemical degradation in the stability test” value in “Stability Study” (stability test) is reported as “did not undergo chemical degradation”. Further, the “Crystal form transformation in the stability test” value in the data set “Stability Study” (stability test) is on record as “did not undergo transformation”. Further, the bioavailability (in general, the share of a dose that reaches the circulation, judged against a reference dose that is usually intravenous) in data set [1] came out at 81%. The Flowability entry in the data set “Flowability Study” was “good flowability”. Further, the “Repose Angle” value turned out to be 36° in the data set “Flowability Study” (listed as Example 1), 35° in the data set “Flowability Study” (listed as Example 2) and 34° in the data set “Flowability Study” (listed as Example 3).
